The source of these data is patent publication US9795140B2, “Molecules having pesticidal utility, and intermediates, compositions, and processes, related thereto” (priority 2015, dated 2017).

What all share (assay type): in vivo
Data set [1] relates to Beet Armyworm (Spodoptera exigua, LAPHEG). The data set is described as follows: Bioassay on Beet Armyworm (BAW), 128-well diet tray assay. The settings on record: 168 h, 50 μg/cm^2 on artificial diet, second instar larvae, 25° C., five to seven days, average of eight wells, read-out: BAW % Control (or Mortality) rating. The protocol:
(§1) Certain molecules disclosed in this document were tested against BAW and CL using procedures described in the following examples. In the reporting of the results, the “BAW & CL Rating Table” was used (See Table Section).
Bioassays on BAW were conducted using a 128-well diet tray assay. One to five second instar BAW larvae were placed in each well (3 mL) of the diet tray that had been previously filled with approximately 1.5 mL of artificial diet to which 50 μg/cm^2 of the test molecule (dissolved in 50 μL of 90:10 acetone-water mixture) had been applied (to each of eight wells) and then allowed to dry. Trays were covered with a clear self-adhesive cover, vented to allow gas exchange, and held at 25° C., 14:10 light-dark for five to seven days. Percent mortality was recorded for the larvae in each well; activity in the eight wells was then averaged. The results are indicated in the table entitled “Table ABC: Biological Results” (See Table Section).

For data set [2], the system named is Cabbage Looper (Trichoplusia ni, TRIPNI). Briefly: Bioassay on Cabbage Looper (CL), 128-well diet tray assay. The settings on record: 168 h, 50 μg/cm^2 on artificial diet, second instar larvae, 25° C., five to seven days, average of eight wells, read-out: CL % Control (or Mortality) rating. The protocol:
as §1
Bioassays on CL were conducted using a 128-well diet tray assay, one to five second instar CL larvae were placed in each well (3 mL) of the diet tray that had been previously filled with 1 mL of artificial diet to which 50 μg/cm^2 of the test molecule (dissolved in 50 μL of 90:10 acetone-water mixture) had been applied (to each of eight wells) and then allowed to dry. Trays were covered with a clear self-adhesive cover, vented to allow gas exchange, and held at 25° C., 14:10 light-dark for five to seven days. Percent mortality was recorded for the larvae in each well; activity in the eight wells was then averaged. The results are indicated in the table entitled “Table ABC: Biological Results” (See Table Section).

The subject of data set [3] is Yellow Fever Mosquito (Aedes aegypti, AEDSAE). Briefly: Bioassay on Yellow Fever Mosquito (YFM) larvae, 96-well plate. The settings on record: about 1 day-old larvae, room temperature, 3 days, scored on mortality. The protocol: Certain molecules disclosed in this document were tested against YFM using procedures described in the following paragraph. In the reporting of the results, the “GPA & YFM Rating Table” was used (See Table Section).
Master plates containing 400 μg of a molecule dissolved in 100 μL of dimethyl sulfoxide (DMSO) (equivalent to a 4000 ppm solution) are used. A master plate of assembled molecules contains 15 μL per well. To this plate, 135 μL of a 90:10 water/acetone mixture is added to each well. A robot is programmed to dispense 15 μL aspirations from the master plate into an empty 96-well shallow plate (“daughter” plate). There are 6 reps (“daughter” plates) created per master. The created “daughter” plates are then immediately infested with YFM larvae.
The day before plates are to be treated, mosquito eggs are placed in Millipore water containing liver powder to begin hatching (4 g. into 400 mL). After the “daughter” plates are created using the robot, they are infested with 220 μL of the liver powder/larval mosquito mixture (about 1 day-old larvae). After plates are infested with mosquito larvae, a non-evaporative lid is used to cover the plate to reduce drying. Plates are held at room temperature for 3 days prior to grading. After 3 days, each well is observed and scored based on mortality. The results are indicated in the table entitled “Table ABC: Biological Results” (See Table Section).

With `O=C(NCC(F)(F)F)c1cc(NC(=O)[C@H]2[C@H](c3cc(Cl)cc(Cl)c3)C2(Cl)Cl)c(Cl)cc1Cl` (relative stereo) [F100, trans-2,4-Dichloro-5-(2,2-dichloro-3-(3,5-dichlorophenyl)cyclopropane-1-carboxamido)-N-(2,2,2-trifluoroethyl)benzamide], the mortality – broadly, the share of the test organisms that died – at 50 µg/cm2 is 50 to 100% in data set [1] and 0% in data set [2]. Besides, the “YFM % Control (or Mortality) rating” value in data set [3] is given as “A (80-100)”.
With `COCCN(C)C(=O)c1cc(NC(=O)[C@H]2[C@H](c3cc(Cl)cc(Cl)c3)C2(Cl)Cl)ccc1Cl` (relative stereo) [F67, trans-2-Chloro-5-(2,2-dichloro-3-(3,5-dichlorophenyl)cyclopropane-1-carboxamido)-N-(2-methoxyethyl)-N-methylbenzamide], the mortality at 50 µg/cm2 in data set [1] and in data set [2] was 50 to 100% throughout. Besides, the “YFM % Control (or Mortality) rating” value in data set [3] is given as “D (No activity noticed in this bioassay)”.
On to `O=C(NCC(F)(F)F)c1cc(NC(=O)[C@H]2[C@H](c3cc(F)cc(F)c3)C2(Cl)Cl)ccc1Cl` (relative stereo) [F121, 2-Chloro-5-(trans-2,2-dichloro-3-(3,5-difluorophenyl)cyclopropane-1-carboxamido)-N-(2,2,2-trifluoroethyl)benzamide], for which the mortality at 50 µg/cm2 in data set [1] and in data set [2] was 50 to 100% throughout. Further, the “YFM % Control (or Mortality) rating” value in data set [3] is on record as “A (80-100)”.
For the compound `CCCNC(=O)c1cc(NC(=O)[C@H]2[C@H](c3cc(Cl)c(OC)c(Cl)c3)C2(Cl)Cl)ccc1Cl` (relative stereo) [F84, trans-2-Chloro-5-(2,2-dichloro-3-(3,5-dichloro-4-methoxyphenyl)cyclopropane-1-carboxamido)-N-propylbenzamide], the mortality at 50 µg/cm2 in data set [1] and in data set [2] was 50 to 100% throughout. In addition, the “YFM % Control (or Mortality) rating” value in data set [3] is listed as “D (No activity noticed in this bioassay)”.
As for `O=C(NCC1CC(F)(F)C1)c1cc(NC(=O)[C@H]2[C@H](c3cc(Cl)cc(Cl)c3)C2(Cl)Cl)ccc1Cl` (relative stereo) [F70, trans-2-Chloro-5-(2,2-dichloro-3-(3,5-dichlorophenyl)cyclopropane-1-carboxamido)-N-((3,3-difluorocyclobutyl)methyl)benzamide], the mortality at 50 µg/cm2 in data set [1] and in data set [2] was 50 to 100% each time. Further, the “YFM % Control (or Mortality) rating” value in data set [3] was “D (No activity noticed in this bioassay)”.
Consider `O=C(NCC(F)(F)F)c1cc(NC(=O)[C@H]2[C@H](c3ccc(F)c(Br)c3)C2(Cl)Cl)ccc1Cl` (relative stereo) [F118, 5-(trans-3-(3-Bromo-4-fluorophenyl)-2,2-dichlorocyclopropane-1-carboxamido)-2-chloro-N-(2,2,2-trifluoroethyl)benzamide], for which the mortality at 50 µg/cm2 in data set [1] and in data set [2] was 50 to 100% each time. Also, in data set [3], the “YFM % Control (or Mortality) rating” value was “A (80-100)”.
As for `CCCNC(=O)c1cc(NC(=O)[C@H]2[C@H](c3ccc(F)c(Cl)c3)C2(Cl)Cl)ccc1Cl` (relative stereo) [F106, trans-2-Chloro-5-(2,2-dichloro-3-(3-chloro-4-fluorophenyl)cyclopropane-1-carboxamido)-N-propylbenzamide], the mortality at 50 µg/cm2 in data set [1] and in data set [2] was 50 to 100% each time. In addition, the “YFM % Control (or Mortality) rating” value in data set [3] is listed as “A (80-100)”.
Regarding `O=C(NCCC1CC1)c1cc(NC(=O)C2C(c3cc(Cl)cc(Cl)c3)C2(Cl)Cl)ccc1Cl` (stereo not drawn) [F24, trans-N-2-Chloro-N-(2-cyclopropylethyl)-5-(2,2-dichloro-3-(3,5-dichlorophenyl)cyclopropane-1-carboxamido)benzamide], the mortality at 50 µg/cm2 in data set [1] and in data set [2] was 50 to 100% throughout. For the same compound, in data set [3], the “YFM % Control (or Mortality) rating” value was “A (80-100)”.
`O=C(NCc1cccnc1)c1cc(NC(=O)[C@H]2[C@H](c3cc(Cl)c(Cl)c(Cl)c3)C2(Cl)Cl)ccc1Cl` (relative stereo) [F7, trans-2-Chloro-5-(2,2-dichloro-3-(3,4,5-trichlorophenyl)cyclopropane-1-carboxamido)-N-(pyridin-3-ylmethyl)benzamide]: the mortality at 50 µg/cm2 in data set [1] and in data set [2] was 50 to 100% each time. Further, the “YFM % Control (or Mortality) rating” value in data set [3] is given as “A (80-100)”.
Turning to `O=C(NCC(F)(F)F)c1cc(NC(=O)[C@H]2[C@H](c3cc(Cl)cc(C(F)F)c3)C2(Cl)Cl)ccc1Cl` (relative stereo) [F128, 2-Chloro-5-(trans-2,2-dichloro-3-(3-chloro-5-(difluoromethyl)phenyl)cyclopropane-1-carboxamido)-N-(2,2,2-trifluoroethyl)benzamide], the mortality at 50 µg/cm2 in data set [1] and in data set [2] was 50 to 100% each time. Further, in data set [3], the “YFM % Control (or Mortality) rating” value was “A (80-100)”.
Consider `CN(CC1CC(F)(F)C1)C(=O)c1cc(NC(=O)[C@H]2[C@H](c3cc(Cl)cc(Cl)c3)C2(Cl)Cl)ccc1Cl` (relative stereo) [F73, trans-2-Chloro-5-(2,2-dichloro-3-(3,5-dichlorophenyl)cyclopropane-1-carboxamido)-N-((3,3-difluorocyclobutyl)methyl)-N-methylbenzamide], for which the mortality at 50 µg/cm2 in data set [1] and in data set [2] was 50 to 100% in each case. For the same compound, the “YFM % Control (or Mortality) rating” value in data set [3] is on record as “A (80-100)”.
As for `C[C@H](CSCCC(F)(F)F)NC(=O)c1cc(NC(=O)C2C(c3cc(Cl)cc(Cl)c3)C2(Cl)Cl)ccc1Cl` (stereo in doubt) [PF2, trans-2-Chloro-5-(2,2-dichloro-3-(3,5-dichlorophenyl)cyclopropane-1-carboxamido)-N—((R)-1-((3,3,3-trifluoropropyl)thio)propan-2-yl)benzamide], the mortality at 50 µg/cm2 in data set [1] and in data set [2] was 50 to 100% in each case. In data set [3], the “YFM % Control (or Mortality) rating” value is “A (80-100)”.
Regarding `CNC(=O)c1cc(NC(=O)[C@H]2[C@H](c3cc(Cl)cc(Cl)c3)C2(Cl)Cl)ccc1Cl` (relative stereo) [F1, trans-2-chloro-5-(2,2-dichloro-3-(3,5-dichlorophenyl)cyclopropane-1-carboxamido)-N-methylbenzamide], the mortality at 50 µg/cm2 in data set [1] and in data set [2] was 50 to 100% throughout. Also, the “YFM % Control (or Mortality) rating” value in data set [3] was “A (80-100)”.
Regarding `CN(CCC(F)(F)F)C(=O)c1cc(NC(=O)[C@H]2[C@H](c3cc(Cl)cc(Cl)c3)C2(Cl)Cl)ccc1Cl` (relative stereo) [F64, trans-2-Chloro-5-(2,2-dichloro-3-(3,5-dichlorophenyl)cyclopropane-1-carboxamido)-N-methyl-N-(3,3,3-trifluoropropyl)benzamide], the mortality at 50 µg/cm2 in data set [1] and in data set [2] was 50 to 100% throughout. The “YFM % Control (or Mortality) rating” value in data set [3] is on record as “D (No activity noticed in this bioassay)”.
Take `O=C(NCCC(F)(F)F)c1cc(NC(=O)[C@H]2[C@H](c3cc(Cl)cc(Cl)c3)C2(Cl)Cl)c(Cl)cc1Cl` (relative stereo) [F102, trans-2,4-Dichloro-5-(2,2-dichloro-3-(3,5-dichlorophenyl)cyclopropane-1-carboxamido)-N-(3,3,3-trifluoropropyl)benzamide]: the mortality at 50 µg/cm2 is 0 to 50% in data set [1] and 0% in data set [2]. In data set [3], the “YFM % Control (or Mortality) rating” value is “A (80-100)”.
The like results for `O=C(NCCc1nccs1)c1cc(NC(=O)[C@H]2[C@H](c3cc(Cl)cc(Cl)c3)C2(Cl)Cl)ccc1Cl` (relative stereo) [PF12, trans-2-Chloro-5-(2,2-dichloro-3-(3,5-dichlorophenyl)cyclopropane-1-carboxamido)-N-(2-(thiazol-2-yl)ethyl)benzamide] were, in that order, 50 to 100%, 50 to 100% and “A (80-100)”.
